Data on one molecule can be found in patent US20240374555A1, “Mast Cell Stabilizer with Sodium Cromoglycate-based Inhibitor for Preventing Lipedema Progression” (MAGI'S LAB SRL, priority 2023, published 2024).

This test concerns histamine and its metabolites in the tissue of people with lipedema. The experiment in a line: Metabolomic analysis (IM-MS) of subcutaneous adipose tissue biopsies from lipedema patients treated with sodium cromoglycate. The format is in vivo, human. The note with it: for Histamine levels in tissue samples after treatment (in words): three lipedema patients treated for two weeks. The method, then: This experiment study involved patients who were diagnosed with lipedema. The study began with collection of a sample from each subject in the study, and three patients received a treatment regimen consisting of twice daily oral doses of sodium cromoglycate (500 mg) for 15 days, as well as a topical cream containing 4% sodium cromoglycate. The effects of this treatment on the patients' symptoms and mast cell activation were evaluated as part of the study.
Thereafter, metabolomic analysis was performed by mass spectrometry. Specifically, the ion-mobility mass spectrometry (IM-MS) technique combined ion mobility with mass spectrometry, allowing different compounds to be characterized together with a specific m/z ratio. SACI-CIMS was used as ionization technique. Data were acquired through the SANIST platform. Values under the Limit of Quantification (LoQ=1 pg/mg) were considered as 0 pg/mg.
Thereafter, a target histological and metabolomic examination was performed. Specifically, biopsies of subcutaneous adipose tissue were taken from a total of six patients with lipedema and four healthy individuals.

Setting [1] is: lipedema tissue of patients treated with sodium cromoglycate (n = 3), 500 mg oral twice daily for 15 days plus 4% topical cream.
Where [2] appears, read: lipedema tissue of patients treated with sodium cromoglycate (n = 3), 500 mg oral twice daily for 15 days plus 4% topical cream, values under LoQ (1 pg/mg) given as 0.

Turning to `O=C(O)c1cc(=O)c2c(OCC(O)COc3cccc4oc(C(=O)O)cc(=O)c34)cccc2o1` [sodium cromoglycate, Sodium cromoglycate], the “Histamine levels in tissue samples after treatment (in words)” value is reported as “effectively reduce histamine levels”. In addition, under setting [1], the 1-Methylhystamine tissue level is on record as 13.67 ± 10.02 pg/mg and the Histidine tissue level worked out at 20.67 ± 17.00 pg/mg. Besides, under setting [2], the Histamine tissue level is 0 pg/mg and the “Imidazole Acetaldehyde tissue level” value amounted to 0 pg/mg. Also, the “Histamine levels in tissue samples after treatment (in words)” value (listed as disodium cromoglycate) is reported as “normal levels of histamine”.
